For the experiment, the system named is T6PNE cells. In words: Nitric oxide assay in T6PNE cells treated with palmitate. The class given is cell-based. The conditions noted are these: 0.12 mM palmitate plus 15 μM NCT, 3 days, FIG. 5H. How it is done:
T6PNE cells were maintained in RPMI (5.5 mM glucose, Corning) supplemented with 10% fetal bovine serum (FBS, Sigma-Aldrich) and 1% penicillin-streptomycin (pen-strep, Gibco) in 5% CO2 at 37° C. Cells were treated with […] palmitate plus 0 or 15 μM NCT for 3 days in 10 cm plates and harvested with 500 μL PBS. For tissue specimens, snap frozen mouse liver was weighed and homogenized with PBS. NO was measured with the QuantiChrom Nitric Oxide Assay kit (D2NO-100, BioAssay Systems). Homogenized samples (150 μL) were processed for deproteination with 8 μL ZnSO4 and 8 μL NaOH. For normalization, an aliquot of samples from T6PNE cells was taken for BCA assay before deproteination. Samples and standard from kit were incubated with reagents for 20 min at 60° C. and measured OD 540 nm.
150 mM Palmitate (Sigma-Aldrich) was prepared in 50% ethanol and precomplexed with 15% fatty acid-free BSA (Research Organics, Cleveland, OH, USA) in a 37° C. water shaker. BSA-precomplexed palmitate was used as a 12 mM stock solution for all assays with a final concentration of 0.12 mM palmitate in cell culture medium.

Take `O=C(/C=C/c1ccc(O)c(O)c1)NCCc1ccc(O)cc1` [NCT, N-trans caffeoyltyramine]: the “level of NO in cultured cells treated with palmitate” value is “decrease”.
